Among the data in patent US12427157B2, “Methods for treatment of diseases involving acidic or hypoxic diseased tissues” (Cybrexa 1, Inc., priority 2018, dated 2025) are IC50 values, retold here.

Residues, ends and D or L forms follow the SMILES beside them. *: point of attachment. X11 = CN(Cc1ccc(-c2[nH]c3cc(F)cc4c3c2CCNC4=O)cc1)C(=O)OCc1ccc(NC(=O)OCCS*)cc1; X23 = COC(=O)[C@@H](CS*)OC(=O)N(C)Cc1ccc(-c2[nH]c3cc(F)cc4c3c2CCNC4=O)cc1; X6 = CNCc1ccc(-c2c3c4c(cc(F)cc4n2[C@@H](CC(C)C)NC(=O)OCCS*)C(=O)NCC3)cc1; X3 = CN(Cc1ccc(-c2[nH]c3cc(F)cc4c3c2CCNC4=O)cc1)C(=O)OCc1ccc(S*)cc1; X18 = CNCc1ccc(-c2c3c4c(cc(F)cc4n2CNC(=O)OCCS*)C(=O)NCC3)cc1; X22 = C[C@]1(c2nc3c(C(N)=O)cccc3[nH]2)CCCN1C(=O)OCCS*

Chain of PARP (P09874 whole entry): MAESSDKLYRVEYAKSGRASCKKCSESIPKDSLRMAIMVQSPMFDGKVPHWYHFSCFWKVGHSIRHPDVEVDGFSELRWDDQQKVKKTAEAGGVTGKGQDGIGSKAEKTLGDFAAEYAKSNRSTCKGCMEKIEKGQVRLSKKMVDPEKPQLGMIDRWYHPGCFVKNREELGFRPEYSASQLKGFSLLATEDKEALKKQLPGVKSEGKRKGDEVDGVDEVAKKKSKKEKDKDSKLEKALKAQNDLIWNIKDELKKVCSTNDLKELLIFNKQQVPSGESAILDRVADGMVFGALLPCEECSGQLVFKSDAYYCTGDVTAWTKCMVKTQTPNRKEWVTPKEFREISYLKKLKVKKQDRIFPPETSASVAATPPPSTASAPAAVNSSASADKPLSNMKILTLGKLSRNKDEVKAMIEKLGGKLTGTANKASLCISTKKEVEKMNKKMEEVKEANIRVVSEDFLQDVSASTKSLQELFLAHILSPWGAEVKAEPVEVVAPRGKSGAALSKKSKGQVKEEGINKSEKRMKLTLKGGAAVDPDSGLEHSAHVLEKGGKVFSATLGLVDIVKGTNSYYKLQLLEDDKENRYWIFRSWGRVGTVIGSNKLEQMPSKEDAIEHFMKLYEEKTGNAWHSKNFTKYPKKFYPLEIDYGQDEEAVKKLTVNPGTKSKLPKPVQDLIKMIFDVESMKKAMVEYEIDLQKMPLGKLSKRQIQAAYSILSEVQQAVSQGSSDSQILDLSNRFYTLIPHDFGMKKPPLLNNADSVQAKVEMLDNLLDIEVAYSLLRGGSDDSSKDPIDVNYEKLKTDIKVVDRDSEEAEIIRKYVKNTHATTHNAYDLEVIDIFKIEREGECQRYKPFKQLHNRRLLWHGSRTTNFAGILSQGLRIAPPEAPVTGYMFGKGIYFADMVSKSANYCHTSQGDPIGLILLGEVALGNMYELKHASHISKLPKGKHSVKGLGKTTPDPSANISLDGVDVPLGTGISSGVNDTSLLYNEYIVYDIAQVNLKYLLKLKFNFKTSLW

This assay has as its target PARP (Homo sapiens, UniProt P09874). Put plainly: Enzymatic Assay 2: HT Universal Chemiluminescent PARP Assay of cleaved compounds.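 Note: PARP reaction with activated DNA run 1 h at room temperature, product detected via streptavidin-HRP and luminescence endpoint reading on a plate reader.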 The settings on record: read-out: IC50 Enzymatic Assay 2; Examples cleaved per Example A (crude cleavage solution); R^8H starting materials as such.
Protocol: An equal volume of 1×PARP cocktail containing activated DNA was added to each well and the reaction was incubated for one hour at room temperature. The wells were washed twice with 1×PBS+0.1% Triton X-100 and twice with PBS. 50 ul/well of diluted streptavidin-HRP was added and the wells were incubated for one hour at room temperature. The wells were washed twice with 1×PBS+0.1% Triton X-100 and washed twice with PBS. The liquid was 5 removed, 100 ul/well 1:1 PeroxyGlow A/PeroxyGlow B was added and the chemiluminescent readings were measured on a BioTek Cytation 5 plate reader using the luminescence fiber endpoint.
For the compound `CC[C@H](C)[C@H](NC(=O)[C@@H]1CCCN1C(=O)[C@H](CC(N)=O)NC(=O)[C@H](CCC(N)=O)NC(=O)[C@H](CCC(=O)O)NC(=O)[C@H](C)N)C(=O)N[C@@H](Cc1ccc(O)cc1)C(=O)N[C@@H](Cc1c[nH]c2ccccc12)C(=O)N[C@@H](C)C(=O)N[C@@H](CCCNC(=N)N)C(=O)N[C@@H](Cc1ccc(O)cc1)C(=O)N[C@@H](C)C(=O)N[C@@H](CC(=O)O)C(=O)N[C@@H](Cc1c[nH]c2ccccc12)C(=O)N[C@@H](CC(C)C)C(=O)N[C@@H](Cc1ccccc1)C(=O)N[C@H](C(=O)N[C@H](C(=O)N1CCC[C@H]1C(=O)N[C@@H](CC(C)C)C(=O)N[C@@H](CC(C)C)C(=O)N[C@@H](CC(C)C)C(=O)N[C@@H](CC(C)C)C(=O)N[C@@H](CC(=O)O)C(=O)N[C@@H](CC(C)C)C(=O)N[C@@H](C)C(=O)N[C@@H](CC(C)C)C(=O)N[C@@H](CC(C)C)C(=O)N[C@H](C(=O)N[C@@H](CC(=O)O)C(=O)N[C@@H](C)C(=O)N[C@@H](CC(=O)O)C(=O)N[C@@H](CCC(=O)O)C(=O)N[C@@H](CSSC[C@@H](OC(=O)N(C)Cc1ccc(-c2[nH]c3cc(F)cc4c3c2CCNC4=O)cc1)C(=O)OC)C(=O)NCC(=O)O)C(C)C)[C@@H](C)O)[C@@H](C)O` [Example 26] (H-AEQNPIYWARYADWLFTTPLLLLDLALLVDADEC(X23)G-OH; N-terminus and C-terminus assumed), the 50% inhibitory concentration (IC50) (in general, the concentration that inhibits the measured activity by half) stood at 2 nM.

For `CC[C@H](C)[C@H](NC(=O)[C@@H]1CCCN1C(=O)[C@H](CC(N)=O)NC(=O)[C@H](CCC(N)=O)NC(=O)[C@H](CCC(=O)O)NC(=O)[C@H](C)N)C(=O)N[C@@H](Cc1ccc(O)cc1)C(=O)N[C@@H](Cc1c[nH]c2ccccc12)C(=O)N[C@@H](C)C(=O)N[C@@H](CCCNC(=N)N)C(=O)N[C@@H](Cc1ccc(O)cc1)C(=O)N[C@@H](C)C(=O)N[C@@H](CC(=O)O)C(=O)N[C@@H](Cc1c[nH]c2ccccc12)C(=O)N[C@@H](CC(C)C)C(=O)N[C@@H](Cc1ccccc1)C(=O)N[C@H](C(=O)N[C@H](C(=O)N1CCC[C@H]1C(=O)N[C@@H](CC(C)C)C(=O)N[C@@H](CC(C)C)C(=O)N[C@@H](CC(C)C)C(=O)N[C@@H](CC(C)C)C(=O)N[C@@H](CC(=O)O)C(=O)N[C@@H](CC(C)C)C(=O)N[C@@H](C)C(=O)N[C@@H](CC(C)C)C(=O)N[C@@H](CC(C)C)C(=O)N[C@H](C(=O)N[C@@H](CC(=O)O)C(=O)N[C@@H](C)C(=O)N[C@@H](CC(=O)O)C(=O)N[C@@H](CCC(=O)O)C(=O)N[C@@H](CSSc1ccc(COC(=O)N(C)Cc2ccc(-c3[nH]c4cc(F)cc5c4c3CCNC5=O)cc2)cc1)C(=O)NCC(=O)O)C(C)C)[C@@H](C)O)[C@@H](C)O` [Example 28] (H-AEQNPIYWARYADWLFTTPLLLLDLALLVDADEC(X3)G-OH; N-terminus and C-terminus assumed), the IC50 amounted to 2.4 nM.

For `CC[C@H](C)[C@H](NC(=O)[C@@H]1CCCN1C(=O)[C@H](CC(N)=O)NC(=O)[C@H](CCC(N)=O)NC(=O)[C@H](CCC(=O)O)NC(=O)[C@H](C)N)C(=O)N[C@@H](Cc1ccc(O)cc1)C(=O)N[C@@H](Cc1c[nH]c2ccccc12)C(=O)N[C@@H](C)C(=O)N[C@@H](CCCNC(=N)N)C(=O)N[C@@H](Cc1ccc(O)cc1)C(=O)N[C@@H](C)C(=O)N[C@@H](CC(=O)O)C(=O)N[C@@H](Cc1c[nH]c2ccccc12)C(=O)N[C@@H](CC(C)C)C(=O)N[C@@H](Cc1ccccc1)C(=O)N[C@H](C(=O)N[C@H](C(=O)N1CCC[C@H]1C(=O)N[C@@H](CC(C)C)C(=O)N[C@@H](CC(C)C)C(=O)N[C@@H](CC(C)C)C(=O)N[C@@H](CC(C)C)C(=O)N[C@@H](CC(=O)O)C(=O)N[C@@H](CC(C)C)C(=O)N[C@@H](C)C(=O)N[C@@H](CC(C)C)C(=O)N[C@@H](CC(C)C)C(=O)N[C@H](C(=O)N[C@@H](CC(=O)O)C(=O)N[C@@H](C)C(=O)N[C@@H](CC(=O)O)C(=O)N[C@@H](CCC(=O)O)C(=O)N[C@@H](CSSCCOC(=O)N1CCC[C@]1(C)c1nc2c(C(N)=O)cccc2[nH]1)C(=O)NCC(=O)O)C(C)C)[C@@H](C)O)[C@@H](C)O` [Example 53] (H-AEQNPIYWARYADWLFTTPLLLLDLALLVDADEC(X22)G-OH; N-terminus and C-terminus assumed), the half-inhibitory concentration (IC50) came to 1 nM.

As for `CC[C@H](C)[C@H](NC(=O)[C@@H]1CCCN1C(=O)[C@H](CC(N)=O)NC(=O)[C@H](CCC(N)=O)NC(=O)[C@H](CCC(=O)O)NC(=O)[C@H](C)N)C(=O)N[C@@H](Cc1ccc(O)cc1)C(=O)N[C@@H](Cc1c[nH]c2ccccc12)C(=O)N[C@@H](C)C(=O)N[C@@H](CCCNC(=N)N)C(=O)N[C@@H](Cc1ccc(O)cc1)C(=O)N[C@@H](C)C(=O)N[C@@H](CC(=O)O)C(=O)N[C@@H](Cc1c[nH]c2ccccc12)C(=O)N[C@@H](CC(C)C)C(=O)N[C@@H](Cc1ccccc1)C(=O)N[C@H](C(=O)N[C@H](C(=O)N1CCC[C@H]1C(=O)N[C@@H](CC(C)C)C(=O)N[C@@H](CC(C)C)C(=O)N[C@@H](CC(C)C)C(=O)N[C@@H](CC(C)C)C(=O)N[C@@H](CC(=O)O)C(=O)N[C@@H](CC(C)C)C(=O)N[C@@H](C)C(=O)N[C@@H](CC(C)C)C(=O)N[C@@H](CC(C)C)C(=O)N[C@H](C(=O)N[C@@H](CC(=O)O)C(=O)N[C@@H](C)C(=O)N[C@@H](CC(=O)O)C(=O)N[C@@H](CCC(=O)O)C(=O)N[C@@H](CSSCCOC(=O)Nc1ccc(COC(=O)N(C)Cc2ccc(-c3[nH]c4cc(F)cc5c4c3CCNC5=O)cc2)cc1)C(=O)NCC(=O)O)C(C)C)[C@@H](C)O)[C@@H](C)O` [Example 32] (H-AEQNPIYWARYADWLFTTPLLLLDLALLVDADEC(X11)G-OH; N-terminus and C-terminus assumed), the IC50 stood at 43.9 nM.

Take `CC(C)C[C@H](NC(=O)[C@H](Cc1ccc(O)cc1)NC(=O)[C@H](C)NC(=O)[C@H](CCCNC(=N)N)NC(=O)[C@H](Cc1c[nH]c2ccccc12)NC(=O)[C@@H]1CCCN1C(=O)[C@H](CC(N)=O)NC(=O)[C@H](CCC(N)=O)NC(=O)[C@H](CC(=O)O)NC(=O)[C@H](CC(=O)O)NC(=O)[C@H](C)N)C(=O)N[C@@H](CC(=O)O)C(=O)N[C@@H](CC(C)C)C(=O)N[C@@H](CC(C)C)C(=O)N[C@@H](Cc1ccccc1)C(=O)N1CCC[C@H]1C(=O)N[C@H](C(=O)N[C@@H](CC(=O)O)C(=O)N[C@H](C(=O)N[C@@H](CC(C)C)C(=O)N[C@@H](CC(C)C)C(=O)N[C@@H](CC(C)C)C(=O)N[C@@H](CC(=O)O)C(=O)N[C@@H](CC(C)C)C(=O)N[C@@H](CC(C)C)C(=O)N[C@@H](Cc1c[nH]c2ccccc12)C(=O)N[C@@H](CSSc1ccc(COC(=O)N(C)Cc2ccc(-c3[nH]c4cc(F)cc5c4c3CCNC5=O)cc2)cc1)C(=O)NCC(=O)O)[C@@H](C)O)[C@@H](C)O` [Example 36]: the 50% inhibitory concentration (IC50) is 2.2 nM.

For the compound `CC(C)C[C@H](NC(=O)[C@H](Cc1ccc(O)cc1)NC(=O)[C@H](C)NC(=O)[C@H](CCCNC(=N)N)NC(=O)[C@H](Cc1c[nH]c2ccccc12)NC(=O)[C@@H]1CCCN1C(=O)[C@H](CC(N)=O)NC(=O)[C@H](CCC(N)=O)NC(=O)[C@H](CC(=O)O)NC(=O)[C@H](CC(=O)O)NC(=O)[C@H](C)N)C(=O)N[C@@H](CC(=O)O)C(=O)N[C@@H](CC(C)C)C(=O)N[C@@H](CC(C)C)C(=O)N[C@@H](Cc1ccccc1)C(=O)N1CCC[C@H]1C(=O)N[C@H](C(=O)N[C@@H](CC(=O)O)C(=O)N[C@H](C(=O)N[C@@H](CC(C)C)C(=O)N[C@@H](CC(C)C)C(=O)N[C@@H](CC(C)C)C(=O)N[C@@H](CC(=O)O)C(=O)N[C@@H](CC(C)C)C(=O)N[C@@H](CC(C)C)C(=O)N[C@@H](Cc1c[nH]c2ccccc12)C(=O)N[C@@H](CC(=O)O)C(=O)N[C@@H](C)C(=O)N[C@@H](CC(=O)O)C(=O)N[C@@H](CCC(=O)O)C(=O)N[C@@H](CSSCCOC(=O)N1CCC[C@]1(C)c1nc2c(C(N)=O)cccc2[nH]1)C(=O)NCC(=O)O)[C@@H](C)O)[C@@H](C)O` [Example 11], the concentration for half-maximal inhibition (IC50) stood at 1.08 nM.

On to `CC[C@H](C)[C@H](NC(=O)[C@@H]1CCCN1C(=O)[C@H](CC(N)=O)NC(=O)[C@H](CCC(N)=O)NC(=O)[C@H](CCC(=O)O)NC(=O)[C@H](C)N)C(=O)N[C@@H](Cc1ccc(O)cc1)C(=O)N[C@@H](Cc1c[nH]c2ccccc12)C(=O)N[C@@H](C)C(=O)N[C@@H](CCCNC(=N)N)C(=O)N[C@@H](Cc1ccc(O)cc1)C(=O)N[C@@H](C)C(=O)N[C@@H](CC(=O)O)C(=O)N[C@@H](Cc1c[nH]c2ccccc12)C(=O)N[C@@H](CC(C)C)C(=O)N[C@@H](Cc1ccccc1)C(=O)N[C@H](C(=O)N[C@H](C(=O)N1CCC[C@H]1C(=O)N[C@@H](CC(C)C)C(=O)N[C@@H](CC(C)C)C(=O)N[C@@H](CC(C)C)C(=O)N[C@@H](CC(C)C)C(=O)N[C@@H](CC(=O)O)C(=O)N[C@@H](CC(C)C)C(=O)N[C@@H](C)C(=O)N[C@@H](CC(C)C)C(=O)N[C@@H](CC(C)C)C(=O)N[C@H](C(=O)N[C@@H](CC(=O)O)C(=O)N[C@@H](C)C(=O)N[C@@H](CC(=O)O)C(=O)N[C@@H](CCC(=O)O)C(=O)N[C@@H](CSSCCOC(=O)N[C@H](CC(C)C)n1c(-c2ccc(CNC)cc2)c2c3c(cc(F)cc31)C(=O)NCC2)C(=O)NCC(=O)O)C(C)C)[C@@H](C)O)[C@@H](C)O` [Example 35] (H-AEQNPIYWARYADWLFTTPLLLLDLALLVDADEC(X6)G-OH; N-terminus and C-terminus assumed), for which the concentration for half-maximal inhibition (IC50) was 3.1 nM.

For the compound `CC[C@H](C)[C@H](NC(=O)[C@@H]1CCCN1C(=O)[C@H](CC(N)=O)NC(=O)[C@H](CCC(N)=O)NC(=O)[C@H](CCC(=O)O)NC(=O)[C@H](C)N)C(=O)N[C@@H](Cc1ccc(O)cc1)C(=O)N[C@@H](Cc1c[nH]c2ccccc12)C(=O)N[C@@H](C)C(=O)N[C@@H](CCCNC(=N)N)C(=O)N[C@@H](Cc1ccc(O)cc1)C(=O)N[C@@H](C)C(=O)N[C@@H](CC(=O)O)C(=O)N[C@@H](Cc1c[nH]c2ccccc12)C(=O)N[C@@H](CC(C)C)C(=O)N[C@@H](Cc1ccccc1)C(=O)N[C@H](C(=O)N[C@H](C(=O)N1CCC[C@H]1C(=O)N[C@@H](CC(C)C)C(=O)N[C@@H](CC(C)C)C(=O)N[C@@H](CC(C)C)C(=O)N[C@@H](CC(C)C)C(=O)N[C@@H](CC(=O)O)C(=O)N[C@@H](CC(C)C)C(=O)N[C@@H](C)C(=O)N[C@@H](CC(C)C)C(=O)N[C@@H](CC(C)C)C(=O)N[C@H](C(=O)N[C@@H](CC(=O)O)C(=O)N[C@@H](C)C(=O)N[C@@H](CC(=O)O)C(=O)N[C@@H](CCC(=O)O)C(=O)N[C@@H](CSSCCOC(=O)NCn1c(-c2ccc(CNC)cc2)c2c3c(cc(F)cc31)C(=O)NCC2)C(=O)NCC(=O)O)C(C)C)[C@@H](C)O)[C@@H](C)O` [Example 33] (H-AEQNPIYWARYADWLFTTPLLLLDLALLVDADEC(X18)G-OH; N-terminus and C-terminus assumed), the IC50 came out at 2.3 nM.
